Assays:
BIRC5 expression = experiment: Cardiac glycosides that inhibit BIRC5 expression in colorectal cancer; format: cell-based
HT29 = experiment: CellTiter-Glo cell viability, HT29; format: cell-based, human; details: 48 h, dose curve 12.5 nM-800 nM, FIG. 1
Description: (§1) Cell lines: Human colon cancer cell lines CCD-18Co and Caco2 (American Type Culture Collection [ATCC], Bethesda, MD) were maintained in Eagle's Minimum Essential Medium (Thermo Fisher Scientific, MA) supplemented with 100,000 U/L of penicillin, 100,000 μg/L of streptomycin, and 20% fetal bovine serum (FBS). HT29 (American Type Culture Collection [ATCC], Bethesda, MD) was maintained in McCoy's 5a Medium Modified (Thermo Fisher Scientific, MA) supplemented with 100,000 U/L of penicillin, 100,000 μg/L of streptomycin, and 10% fetal bovine serum (FBS). The following cells were also tested: MDA 231 Breast Cancer Cells, U87 Glioblastoma Cells, U251 Glioblastoma Cells and Dul45 Prostate Cancer Cells. All cells were maintained in Eagles Medium as described above.
(§2) The cells were subjected to cell viability assays using The CellTiter-Glo luminescent cell viability kit (Promega, catalog number: G7570). luminescence was measured using microplate luminometer (luminoskan™ ascent, Thermo-Fisher Scientific, MA). Background luminescence was measured in medium without cells and subtracted from experimental values.

[1] = tested on: human colon cancer cell lines (CCD-18Co, Caco2, HT29); experiment: CellTiter-Glo cell viability, three human colon cancer cell lines; format: cell-based; details: dose-response curves, 48 h, FIGS. 1-3
Description: as §1, with “The following cells were also tested: MDA 231 Breast Cancer Cells, U87 Glioblastoma Cells, U251 Glioblastoma Cells and Dul45 Prostate Cancer Cells.” left out
as §2

Caco2 = experiment: CellTiter-Glo cell viability, Caco2; format: cell-based, human; details: 48 h, dose curve 625 μM-40000 μM, FIG. 3
Description: as §1, §2

| Compound | inhibition of BIRC5 expression (BIRC5 expression) | sensitivity of cell viability (HT29) | cell viability, single drug alone [1] | sensitivity of cell viability (Caco2) |
| --- | --- | --- | --- | --- |
| C[C@]12CC[C@H](O)C[C@H]1CC[C@@H]1[C@@H]2CC[C@]2(C)[C@@H](C3=CC(=O)OC3)CC[C@]12O [Digitoxigenin] | inhibit BIRC5 expression | – | – | – |
| C[C@H]1O[C@@H](O[C@H]2[C@@H](O)C[C@H](O[C@H]3[C@@H](O)C[C@H](O[C@H]4CC[C@@]5(C)[C@H](CC[C@@H]6[C@@H]5C[C@@H](O)[C@]5(C)[C@@H](C7=CC(=O)OC7)CC[C@]65O)C4)O[C@@H]3C)O[C@@H]2C)C[C@H](O)[C@@H]1O [Digoxin] | inhibit BIRC5 expression | very sensitive | reduced cell viability to varying degrees | – |
| CC(=O)O[C@H]1C[C@H](O[C@H]2[C@@H](O)C[C@H](O[C@H]3[C@@H](O)C[C@H](O[C@H]4CC[C@@]5(C)[C@H](CC[C@@H]6[C@@H]5C[C@@H](O)[C@]5(C)[C@@H](C7=CC(=O)OC7)CC[C@]65O)C4)O[C@@H]3C)O[C@@H]2C)O[C@H](C)[C@H]1O[C@@H]1O[C@H](CO)[C@@H](O)[C@H](O)[C@H]1O [Lanatoside C] | inhibit BIRC5 expression | – | – | – |
| CN(C)C(=N)N=C(N)N [Metformin] | – | – | reduced cell viability to varying degrees | sensitive |
| C[C@@H]1O[C@@H](O[C@H]2C[C@@H](O)[C@]3(CO)[C@H]4[C@H](O)C[C@]5(C)[C@@H](C6=CC(=O)OC6)CC[C@]5(O)[C@@H]4CC[C@]3(O)C2)[C@H](O)[C@H](O)[C@H]1O [Ouabain] | inhibit BIRC5 expression | – | – | – |
| C[C@]12CC[C@H](O)C[C@H]1CC[C@@H]1[C@@H]2CC[C@]2(C)[C@@H](c3ccc(=O)oc3)CC[C@]12O [bufalin] | inhibit BIRC5 expression | – | – | – |

Source: patent publication US20240374628A1 (Whispergenics. Inc., priority 2021, published 2024)
